The numbers were not newly measured in article PMC8339258 (Frontiers in Pharmacology, 2021), which cites them from elsewhere.

Each structure is given as a SMILES string.

Regarding `CC#CCn1c(N2CCC[C@@H](N)C2)nc2c1c(=O)n(Cc1nc(C)c3ccccc3n1)c(=O)n2C` [linagliptin, (R)-8-(3-Amino-piperidin-1-yl)-7-but-2-ynyl-3-methyl-1-(4-methyl-quinazolin-2-ylmethyl)-3,7-dihydro-purine-2,6-dione], under “comparison in discussion, ref not given”, the t1/2 is more than 100 h. Besides, the terminal half-life (ref Hüttner et al., 2008, Heise et al., 2009, Blech al., 2010, Sarashina et al.) is on record as 142 h.
